We go through seven molecules from ChEMBL document CHEMBL1132333, “Synthesis and enantiomeric separation of 2-phthalimidino-glutaric acid analogues: potent inhibitors of tumor metastasis” (1999).

For this assay, the system named is Mus musculus. In words: Compound (0.4 mmol/Kg) was evaluated for its ability to inhibit B16BL6 pulmonary metastasis in mice. The number of lung metastases of treated (T) and nontreated or control (C) is expressed as ratio, T/C. It is filed as functional.

Molecules are shown by their SMILES.

Turning to `C[C@@](CCC(=O)O)(C(=O)O)N1Cc2ccccc2C1=O`, the T/C came to 0.7.

Take `C[C@](CCC(=O)O)(C(=O)O)N1Cc2ccccc2C1=O`: the T/C is on record as 0.15.

Take `O=C(O)CCC(C(=O)O)N1Cc2ccc(O)cc2C1=O` (configuration not stated): the T/C was 0.9.

For `O=C(O)CCC(C(=O)O)N1Cc2cccc(O)c2C1=O` (configuration not stated), the T/C is listed as 0.95.

Consider `CC(CCC(=O)O)(C(=O)O)N1Cc2ccccc2C1=O` (configuration not stated), for which the T/C amounted to 0.25.

With `O=C1CCC(N2C(=O)c3ccccc3C2=O)C(=O)N1` (configuration not stated) [THALIDOMIDE], the T/C was 0.9.

In the case of `O=C(O)CCC(C(=O)O)N1Cc2ccccc2C1=O` (configuration not stated), the T/C was determined as 0.2.
